Assay [1] deals with LPS in rat peritonitis (CLP; cecal ligation and puncture) model. The assay can be described thus: Inhibitory effect on LPS that increases in rat peritonitis (CLP) model. Type of assay: in vivo. Conditions: iv, continuous tail vein infusion 2.5 mg/kg/hr. As for the experimental part: Rat peritonitis (CLP; cecal ligation and puncture) model was prepared according to the method of Wichterman et al. (J. Surg. Res. 29, 189-201 <1980>). That is, a rat fasted overnight was anesthetized with ether, and a midline laparotomy was performed and the cecum was exposed. The cecum was ligated with a 3-0 silk thread at its base and perforated two times with an 18 G injection needle. The cecum was gently squeezed to extrude feces, which were spread around the abdomen, and the sectioned part was sutured. The animal was fixed in a Borrmann cage, and physiological saline or drug solution ([…]) was continuously given from the tail vein at an administration rate of 2.5 mg/kg/hr with an infusion pump (22 M, Harvard, 5 mL/kg/hr as a dose).
After 6 hr of the CLP treatment, the animal was sacrificed with carbonic acid gas. The abdominal cavity was washed by injecting phosphate buffered saline (PBS; 37° C., 10 mL) and the abdominal cavity washing containing ascites (PLF; peritoneal lavage fluid) was recovered. The recovery weight of the obtained PLF was measured, and PLF was centrifuged (1500 rpm for 5 min, 4° C.) to recover supernatant. The blood taken from the heart was centrifuged (3000 rpm for 10 min, 4° C.) using a serum separation tube, and the serum was recovered. The concentration of LPS in the abdominal cavity and serum was measured using Toxinometer MT-285 (Waco Pure Chemical Industries) preheated to 37° C., after diluting the supernatant and serum of the recovered PLF 10^5-fold and 10^2-fold, respectively, with sterile distilled water, and adding 200 μL thereof to a limulus reagent (LAL ES, Waco Pure Chemical Industries). The amount of LPS per abdominal cavity was calculated from amount of recovered abdominal cavity washing (PLF)×LPS concentration of PLF.
The LPS inhibitory ratio of the compound was calculated as the ratio of LPS concentration of the compound administration group to LPS concentration of the physiological saline administration group.

Assay [2] deals with LPS in E. coli culture supernatant (E. coli NIHJ JC-2 strain). The assay can be described thus: Inhibitory effect on LPS in E. coli culture supernatant. Type of assay: cell-based. Conditions: relative ratio to the inhibitory ratio of the compound of Example 1 as 1.0; compound 100 μM, 24 hr. As for the experimental part:
One platinum loop of E. coli NIHJ JC-2 strain was inoculated into a test tube containing heart infusion broth (HIB, 5 mL) and cultured for about 24 hr. The bacterial culture broth was washed three times by centrifugation (3000 rpm, 15 min, 20° C., TOMY Seiko, RL-131) using 10 mL of fresh HIB medium for one cycle of washing. The washed bacteria were prepared to an about 10^7 colony forming unit (CFU)/mL with a fresh HIB medium, and 0.2 mL of the prepared bacterial suspension was inoculated into an Erlenmeyer flask containing a fresh HIB medium (18.8 mL) (i.e., to final bacterial concentration of about 10^5 CFU/mL). A solution (1 mL) of each compound prepared to a concentration of 2 mM (final concentration of compound 100 μM) was added to the culture broth containing the bacteria. Using a shaker (RGR-1 type, manufactured by IWASHIYA, Ltd.), shake culture was conducted at 37° C., and 2 mL of culture broth after 24 hr was sampled. The sampled culture broth was filtered (DISMIC, 0.45 μm, Advantech Toyo) and diluted 10^5-fold with sterile distilled water. The resulting suspension (200 μL) was added to a limulus reagent (LAL ES, Wako Pure Chemical Industries) and LPS concentration was measured using Toxinometer MT-285 (Wako Pure Chemical Industries) preheated to 37° C.
The LPS inhibitory ratio of the compound was calculated as a ratio of the LPS concentration of the compound addition group relative to the LPS concentration of the compound non-addition group. […] The inhibitory ratio of each compound is shown in the following in Table 1 as a relative ratio to the inhibitory ratio of the compound of Example 1 as 1.0.

The mark [3] stands for this setting: peritoneal lavage fluid 6 hr after CLP, read-out: LPS inhibitory ratio (%) in abdominal cavity.
Where [4] appears, read: serum 6 hr after CLP, read-out: LPS inhibitory ratio (%) in blood.

Where two headings read alike, the source gives them in different places.

Take `CC(C)C[C@@H](C(=O)N[C@@H](Cc1ccccc1)C(=O)NCCCS(=O)(=O)[O-])C(CN1C(=O)c2ccccc2C1=O)C(=O)NO.[Na+]` (single isomer, unassigned) [Example 19, 5-methyl-3(R)-[2-phenyl-1(S)-(3-sulfopropylcarbamoyl)ethylcarbamoyl]-2(R or S)-phthalimidomethylhexanohydroxamic acid sodium salt]: the inhibition in vivo at 2.5 mg/kg/h came to 89.6% in assay [1] (setting [3]) and 67.8% in assay [1] (setting [4]). In addition, the “inhibitory effect of compound on LPS in E. coli culture supernatant, relative ratio” value (shortened to “inhibitory effect of compound … relative ratio”) in assay [2] is 0.67.
The matching figures for `CC(C)C[C@@H](C(=O)N[C@@H](Cc1ccccc1)C(=O)NCCCCCS(=O)(=O)[O-])C(CN1C(=O)c2ccccc2C1=O)C(=O)NO.[Na+]` (single isomer, unassigned) [Example 22, 5-methyl-3(R)-[2-phenyl-1(S)-(5-sulfopentylcarbamoyl)ethylcarbamoyl]-2(R or S)-phthalimidomethylhexanohydroxamic acid sodium salt]: 80.7%, 21.6% and 0.68.
On to `CC(C)C[C@@H](C(=O)N[C@@H](Cc1ccccc1)C(=O)NCCCCS(=O)(=O)[O-])C(CN1C(=O)c2ccccc2C1=O)C(=O)NO.[Na+]` (single isomer, unassigned) [Example 21, 5-methyl-3(R)-[2-phenyl-1(S)-(4-sulfobutylcarbamoyl)ethylcarbamoyl]-2(R or S)-phthalimidomethylhexanohydroxamic acid sodium salt], for which the inhibition in vivo at 2.5 mg/kg/h stood at 57.1% in assay [1] (setting [3]) and 55.9% in assay [1] (setting [4]). In assay [2], the “inhibitory effect of compound … relative ratio” value was found to be 0.79.
The corresponding values for `CNC(=O)[C@H](Cc1ccc(OCCS(=O)(=O)[O-])cc1)NC(=O)[C@H](CC(C)C)C(CN1C(=O)c2ccccc2C1=O)C(=O)NO.[Na+]` (single isomer, unassigned) [Example 10, 5-methyl-3(R)-{1(S)-methylcarbamoyl-2-[4-(2-sulfoethoxy)phenyl]ethylcarbamoyl}-2(R or S)-phthalimidomethylhexanohydroxamic acid sodium salt] are 88.1%, 81.4% and 0.87.
On to `CNC(=O)[C@H](Cc1ccc(OCCCS(=O)(=O)[O-])cc1)NC(=O)[C@H](CC(C)C)C(Cc1ccc2ccccc2c1)C(=O)NO.[Na+]` (single isomer, unassigned) [Example 13, 5-methyl-3(R)-{1(S)-methylcarbamoyl-2-[4-(3-sulfopropoxy)phenyl]ethylcarbamoyl}-2(R or S)-(2-naphthylmethyl)hexanohydroxamic acid sodium salt], for which the inhibition in vivo at 2.5 mg/kg/h in assay [1] (setting [3]) turned out to be 44.7%; in assay [1] (setting [4]), 74.2%. For the same compound, in assay [2], the “inhibitory effect of compound … relative ratio” value was 0.87.

For the origin of these results see US6989401B2, “Sulfonic acid derivatives of hydroxamic acids and their use as medicinal products” (Mitsubishi Pharma Corporation, priority 2000, dated 2006).
